We go through 22 compounds from patent publication US20240287122A1, “NOVEL GALACTOSIDE INHIBITOR OF GALECTINS” (GALECTO BIOTECH AB, priority 2020, published 2024).

The target of assay [1] is Galectin-3 (Homo sapiens, UniProt P17931). In words: Fluorescence anisotropy assay, affinity for galectin-3. In kind it is binding. As to conditions: compound as inhibitor of the interaction between galectin and a fluorescein tagged saccharide probe. Here is the method:
(§1) The affinity of Example 1-43 for galectins were determined by a fluorescence anisotropy assay where the compound was used as an inhibitor of the interaction between galectin and a fluorescein tagged saccharide probe as described Sörme, P., Kahl-Knutsson, B., Huflejt, M., Nilsson, U. J., and Leffler H. (2004) Fluorescence polarization as an analytical tool to evaluate galectin-ligand interactions. Anal. Biochem. 334: 36-47, (Sörme et al., 2004) and Monovalent interactions of Galectin-1 By Salomonsson, Emma; Larumbe, Amaia; Tejler, Johan; Tullberg, Erik; Rydberg, Hanna; Sundin, Anders; Khabut, Areej; Frejd, Torbjomn; Lobsanov, Yuri D.; Rini, James M.; et al, From Biochemistry (2010), 49(44), 9518-9532, (Salomonsson et al., 2010).

The target of assay [2] is Galectin-1 (Homo sapiens, UniProt P09382). Put plainly: Fluorescence anisotropy assay, affinity for galectin-1. In kind it is binding. As to conditions: compound as inhibitor of the interaction between galectin and a fluorescein tagged saccharide probe. Here is the method:
as §1

Molecules are shown by their SMILES.

Sequence of Galectin-1 (P09382 whole entry): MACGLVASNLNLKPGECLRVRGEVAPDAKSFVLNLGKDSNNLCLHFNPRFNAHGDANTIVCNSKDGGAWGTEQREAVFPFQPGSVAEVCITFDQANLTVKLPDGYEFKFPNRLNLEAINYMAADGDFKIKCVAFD
Sequence of Galectin-3 (P17931 whole entry): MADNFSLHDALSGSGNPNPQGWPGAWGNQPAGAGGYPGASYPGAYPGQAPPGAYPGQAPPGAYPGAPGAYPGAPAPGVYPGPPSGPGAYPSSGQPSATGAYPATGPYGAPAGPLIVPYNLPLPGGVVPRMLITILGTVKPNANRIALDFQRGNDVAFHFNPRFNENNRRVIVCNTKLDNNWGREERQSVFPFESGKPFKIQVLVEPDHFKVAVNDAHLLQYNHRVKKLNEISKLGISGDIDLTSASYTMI

As usually defined, the Kd is the equilibrium constant for the complex coming apart. As for `COC1C(n2cc(-n3cc(C)c(Cl)n3)nn2)[C@@H](O)C(CO)O[C@@H]1Sc1cc(Br)cnc1C#N` (stereo partly drawn) [Example 18, 5-Bromo-2-cyanopyridin-3-yl 3-[4-(3-chloro-4-methyl-1H-1,2-pyrazol-1-yl)-1H-1,2,3-triazol-1-yl]-3-deoxy-2-O-methyl-1-thio-α-D-galactopyranoside], the Kd in assay [1] was found to be 0.041 µM; in assay [2] it was 0.35 µM.

For the compound `COC1C(n2cc(-n3nc(C(F)(F)F)cc3Cl)nn2)[C@@H](O)C(CO)O[C@@H]1Sc1cc(Br)cnc1C#N` (stereo partly drawn) [Example 17, 5-Bromo-2-cyanopyridin-3-yl 3-{4-[5-chloro-3-(trifluoromethyl)-1H-1,2-pyrazol-1-yl]-1H-1,2,3-triazol-1-yl}-3-deoxy-2-O-methyl-1-thio-α-D-galactopyranoside], the Kd is 0.56 µM in assay [1] and 2 µM in assay [2].

For the compound `COC1[C@@H](Sc2cc(Br)cnc2C(=O)NCCF)OC(CO)[C@H](O)[C@@H]1n1cc(-n2ccc(Cl)n2)nn1` (stereo partly drawn) [Example 38, 5-Bromo-2-[N-(2-fluoroethyl)carbamoyl]pyridin-3-yl 3-[4-(3-chloro-1H-1,2-pyrazol-1-yl)-1H-1,2,3-triazol-1-yl]-3-deoxy-2-O-methyl-1-thio-α-D-galactopyranoside], the results for the Kd in assay [1] and in assay [2] were 0.18 µM and 0.08 µM, respectively.

With `CCCCNC(=O)c1ncc(Br)cc1S[C@H]1OC(CO)[C@H](O)[C@H](n2cc(-n3ccc(Cl)n3)nn2)C1OC` (stereo partly drawn) [Example 36, 5-Bromo-2-(N-butylcarbamoyl)pyridin-3-yl 3-[4-(3-chloro-1H-1,2-pyrazol-1-yl)-1H-1,2,3-triazol-1-yl]-3-deoxy-2-O-methyl-1-thio-α-D-galactopyranoside], the Kd in assay [1] came to 0.14 µM; in assay [2] it was 0.11 µM.

Regarding `COC1C(n2cc(-n3ccc(Cl)n3)nn2)[C@@H](O)C(CO)O[C@@H]1Sc1cc(Br)cnc1C(=O)N(CC(C)C)CC(C)C` (stereo partly drawn) [Example 20, 5-Bromo-2-(N,N-diisobutylcarbamoyl)pyridin-3-yl 3-[4-(3-chloro-1H-1,2-pyrazol-1-yl)-1H-1,2,3-triazol-1-yl]-3-deoxy-2-O-methyl-1-thio-α-D-galactopyranoside], the Kd in assay [1] and in assay [2] was 0.36 µM throughout.

Consider `COC1[C@@H](Sc2cc(Br)cnc2C(=O)NCC(C)C)OC(CO)[C@H](O)[C@@H]1n1cc(-n2ccc(Cl)n2)nn1` (stereo partly drawn) [Example 37, 5-Bromo-2-(N-isobutylcarbamoyl)pyridin-3-yl 3-[4-(3-chloro-1H-1,2-pyrazol-1-yl)-1H-1,2,3-triazol-1-yl]-3-deoxy-2-O-methyl-1-thio-α-D-galactopyranoside], for which the Kd is 0.11 µM in assay [1] and 0.092 µM in assay [2].

For the compound `COC1C(n2cc(-n3ccc(Cl)n3)nn2)[C@@H](O)C(CO)O[C@@H]1Sc1cc(Br)ccc1C#N` (stereo partly drawn) [Example 2, 5-Bromo-2-cyanophenyl 3-[4-(3-chloro-1H-1,2-pyrazol-1-yl)-1H-1,2,3-triazol-1-yl]-3-deoxy-2-O-methyl-1-thio-α-D-galactopyranoside], the figures for the Kd in assay [1] and in assay [2] were 0.13 µM and 0.085 µM, respectively.

With `COC1C(n2cc(-n3ccc(C)n3)nn2)[C@@H](O)C(CO)O[C@@H]1Sc1cc(Br)cnc1C#N` (stereo partly drawn) [Example 14, 5-Bromo-2-cyanopyridin-3-yl 3-deoxy-3-[4-(3-methyl-1H-1,2-pyrazol-1-yl)-1H-1,2,3-triazol-1-yl]-2-O-methyl-1-thio-α-D-galactopyranoside], the Kd in assay [1] turned out to be 1.4 µM; in assay [2], 0.18 µM.

In the case of `OCC1O[C@H](Sc2cncc(Cl)c2)C(O)C(n2cc(-n3ccc(Cl)n3)nn2)[C@H]1O` (stereo partly drawn) [Example 5, 5-Chloropyridin-3-yl 3-[4-(3-chloro-1H-1,2-pyrazol-1-yl)-1H-1,2,3-triazol-1-yl]-3-deoxy-1-thio-α-D-galactopyranoside], the Kd in assay [1] came to 0.31 µM; in assay [2], 0.5 µM.

For `CCN(C(=O)c1ncc(Br)cc1S[C@H]1OC(CO)[C@H](O)C(n2cc(-n3ccc(Cl)n3)nn2)C1OC)C(C)(C)C` (stereo partly drawn) [Example 23, 5-Bromo-2-[N,N-(tert-butyl)ethylcarbamoyl]pyridin-3-yl 3-[4-(3-chloro-1H-1,2-pyrazol-1-yl)-1H-1,2,3-triazol-1-yl]-3-deoxy-2-O-methyl-1-thio-α-D-galactopyranoside], the values for the Kd in assay [1] and in assay [2] were 0.072 µM and 0.087 µM, respectively.

As for `CCN(CC(C)(C)F)C(=O)c1ncc(Br)cc1S[C@H]1OC(CO)[C@H](O)C(n2cc(-n3ccc(Cl)n3)nn2)C1OC` (stereo partly drawn) [Example 30, 5-Bromo-2-[N,N-ethyl(2-fluoro-2-methylpropyl)carbamoyl]pyridin-3-yl 3-[4-(3-chloro-1H-1,2-pyrazol-1-yl)-1H-1,2,3-triazol-1-yl]-3-deoxy-2-O-methyl-1-thio-α-D-galactopyranoside], the figures for the Kd in assay [1] and in assay [2] were 0.062 µM and 0.14 µM, respectively.

Consider `COC1C(n2cc(-n3ccc(Cl)n3)nn2)[C@@H](O)C(CO)O[C@@H]1Sc1cc(Br)cnc1C#N` (stereo partly drawn) [Example 3, 5-Bromo-2-cyanopyridin-3-yl 3-[4-(3-chloro-1H-1,2-pyrazol-1-yl)-1H-1,2,3-triazol-1-yl]-3-deoxy-2-O-methyl-1-thio-α-D-galactopyranoside], for which the Kd amounted to 0.12 µM in assay [1] and 0.13 µM in assay [2].

Take `COC1C(n2cc(-n3ccc(Cl)n3)nn2)[C@@H](O)C(CO)O[C@@H]1Sc1cc(Br)cnc1C(=O)N(CC1CCC1)C(C)C` (stereo partly drawn) [Example 26, 5-Bromo-2-[N,N-(cyclobutylmethyl)isopropylcarbamoyl]pyridin-3-yl 3-[4-(3-chloro-1H-1,2-pyrazol-1-yl)-1H-1,2,3-triazol-1-yl]-3-deoxy-2-O-methyl-1-thio-α-D-galactopyranoside]: the Kd in assay [1] came out at 0.11 µM; in assay [2], 0.16 µM.

In the case of `COC1C(n2cc(-n3ccc(Cl)n3)nn2)[C@@H](O)C(CO)O[C@@H]1Sc1cc(Br)cnc1C(=O)N(CC1CCC1)CC1CCC1` (stereo partly drawn) [Example 27, 5-Bromo-2-[N,N-bis(cyclobutylmethyl)carbamoyl]pyridin-3-yl 3-[4-(3-chloro-1H-1,2-pyrazol-1-yl)-1H-1,2,3-triazol-1-yl]-3-deoxy-2-O-methyl-1-thio-α-D-galactopyranoside], the Kd in assay [1] was determined as 0.26 µM; in assay [2], 0.38 µM.

`CCN(CC1CC1)C(=O)c1ncc(Br)cc1S[C@H]1OC(CO)[C@H](O)C(n2cc(-n3ccc(Cl)n3)nn2)C1OC` (stereo partly drawn) [Example 21, 5-Bromo-2-[N,N-(cyclopropylmethyl)ethylcarbamoyl]pyridin-3-yl 3-[4-(3-chloro-1H-1,2-pyrazol-1-yl)-1H-1,2,3-triazol-1-yl]-3-deoxy-2-O-methyl-1-thio-α-D-galactopyranoside]: the Kd in assay [1] and in assay [2] was 0.1 µM throughout.

For `COC1C(n2cc(-n3ccc(Cl)n3)nn2)[C@@H](O)C(CO)O[C@@H]1Sc1cc(Br)cnc1C(=O)N(CC1CC1)OC` (stereo partly drawn) [Example 33, 5-Bromo-2-[N,N-(cyclopropylmethyl)methoxycarbamoyl]pyridin-3-yl 3-[4-(3-chloro-1H-1,2-pyrazol-1-yl)-1H-1,2,3-triazol-1-yl]-3-deoxy-2-O-methyl-1-thio-α-D-galactopyranoside], the Kd in assay [1] worked out at 0.068 µM; in assay [2], 0.074 µM.

Take `COC1C(n2cc(-n3ccc(Cl)n3)nn2)[C@@H](O)C(CO)O[C@@H]1Sc1cc(Br)cnc1C(=O)N(CC1CC1)CC1CC1` (stereo partly drawn) [Example 24, 5-Bromo-2-[N,N-bis(cyclopropylmethyl)carbamoyl]pyridin-3-yl 3-[4-(3-chloro-1H-1,2-pyrazol-1-yl)-1H-1,2,3-triazol-1-yl]-3-deoxy-2-O-methyl-1-thio-α-D-galactopyranoside]: the Kd in assay [1] came out at 0.083 µM; in assay [2], 0.12 µM.

Take `COC1C(n2cc(-n3ccc(Cl)n3)nn2)[C@@H](O)C(CO)O[C@@H]1Sc1cc(Br)cnc1C(=O)N1CCCC1` (stereo partly drawn) [Example 28, 5-Bromo-2-(pyrrolidine-1-carbonyl)pyridin-3-yl 3-[4-(3-chloro-1H-1,2-pyrazol-1-yl)-1H-1,2,3-triazol-1-yl]-3-deoxy-2-O-methyl-1-thio-α-D-galactopyranoside]: the Kd is 0.052 µM in assay [1] and 0.069 µM in assay [2].

In the case of `OCC1O[C@H](Sc2cncc(Cl)c2)C(O)C(n2cc(-n3ccc(F)n3)nn2)[C@H]1O` (stereo partly drawn) [Example 4, 5-Chloropyridin-3-yl 3-deoxy-3-[4-(3-fluoro-1H-1,2-pyrazol-1-yl)-1H-1,2,3-triazol-1-yl]-1-thio-α-D-galactopyranoside], the Kd in assay [1] amounted to 0.36 µM; in assay [2] it was 1.7 µM.

Consider `COC1C(n2cc(-n3ccc(Cl)n3)nn2)[C@@H](O)C(CO)O[C@@H]1Sc1cc(Br)cnc1C(=O)N(CC1CC1)C(C)C` (stereo partly drawn) [Example 31, 5-Bromo-2-[N,N-(cyclopropylmethyl)isopropylcarbamoyl]pyridin-3-yl 3-[4-(3-chloro-1H-1,2-pyrazol-1-yl)-1H-1,2,3-triazol-1-yl]-3-deoxy-2-O-methyl-1-thio-α-D-galactopyranoside], for which the figures for the Kd in assay [1] and in assay [2] were 0.06 µM and 0.072 µM, respectively.

As to `COC1C(n2cc(-n3ccc(Cl)n3)nn2)[C@@H](O)C(CO)O[C@@H]1Sc1cc(Br)cnc1C(F)(F)F` (stereo partly drawn) [Example 7, 5-Bromo-2-(trifluoromethyl)pyridin-3-yl 3-[4-(3-chloro-1H-1,2-pyrazol-1-yl)-1H-1,2,3-triazol-1-yl]-3-deoxy-2-O-methyl-1-thio-α-D-galactopyranoside], the Kd was found to be 0.21 µM in assay [1] and 0.15 µM in assay [2].

`COC1C(n2cc(-n3cc(F)cn3)nn2)[C@@H](O)C(CO)O[C@@H]1Sc1cc(Br)cnc1C#N` (stereo partly drawn) [Example 13, 5-Bromo-2-cyanopyridin-3-yl 3-deoxy-3-[4-(4-fluoro-1H-1,2-pyrazol-1-yl)-1H-1,2,3-triazol-1-yl]-2-O-methyl-1-thio-α-D-galactopyranoside]: the Kd in assay [1] is 1.7 µM; in assay [2], 0.18 µM.
